# Measured values reported in US11673894B2, “Imidazopyrimidines and triazolopyrimidines as A2A / A2B inhibitors” (Incyte Corporation, priority 2018, dated 2023).
# What was measured:
# [1] = biological target: Adenosine A2A receptor (Homo sapiens (Human), UniProt P29274); test: A2A Tag-lite HTRF Assay; settings: Tag-lite Adenosine A2A labeled cells; A2A Receptor Red antagonist fluorescent ligand 12.5 nM; one-site competitive binding model; read-out: A2A_Ki
# Excerpt: The final concentration of DMSO was 1%.
# [2] = biological target: human adenosine A2B receptor (Homo sapiens (Human), UniProt P29275); test: Adenosine A2B Receptor Cyclic AMP GS Assay; assay type: cell-based; settings: HEK-293 cells expressing human A2B receptor; agonist NECA at 12 nM; cAMP accumulation (FRET); read-out: A2B_cAMP_EC50
# Method: Stably transfected HEK-293 cells expressing the human adenosine A2B receptor (Perkin Elmer) were maintained in MEM culture medium with 10% FBS and 100 μg/ml Geneticin (Life Technologies). 18 to 24 hours prior to assay, geneticin was removed from culture. The cisbio cAMP-GS Dynamic kit utilizing the FRET (Fluorescence Resonance Energy Transfer) technology was used to measure cAMP accumulation in the cells. Compounds of the present disclosure at an appropriate concentration were mixed with 10000 cells/well in white 96 well half area plates (Perkin Elmer) for 30 min at RT gently shaking. Agonist, NECA (R&D Technologies) at 12 nM was added to each well for 60 min at RT gently shaking. Detection reagents, d2-labeled cAMP (acceptor) and anti-cAMP cryptate (donor) were added to each well for 60 min at RT gently shaking. Plates were read on Pherastar (BMG Labtech), fluorescence ratio 665/620 was calculated and EC50 determination was performed by fitting the curve of percent of control versus the log of the compound concentration using GraphPad Prism.
# Sequence of Adenosine A2A receptor (P29274 whole entry): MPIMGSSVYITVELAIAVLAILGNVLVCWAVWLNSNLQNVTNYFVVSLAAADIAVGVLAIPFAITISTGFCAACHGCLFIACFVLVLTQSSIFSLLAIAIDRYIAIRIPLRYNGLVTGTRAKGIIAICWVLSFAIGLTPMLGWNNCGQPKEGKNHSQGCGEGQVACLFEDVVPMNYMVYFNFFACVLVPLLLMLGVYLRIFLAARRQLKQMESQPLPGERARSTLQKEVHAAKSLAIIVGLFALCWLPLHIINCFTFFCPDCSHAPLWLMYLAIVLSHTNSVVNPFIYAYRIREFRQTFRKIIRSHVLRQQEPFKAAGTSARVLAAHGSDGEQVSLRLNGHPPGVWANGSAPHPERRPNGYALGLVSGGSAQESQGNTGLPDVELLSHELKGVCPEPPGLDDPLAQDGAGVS
# Sequence of human adenosine A2B receptor (P29275 whole entry): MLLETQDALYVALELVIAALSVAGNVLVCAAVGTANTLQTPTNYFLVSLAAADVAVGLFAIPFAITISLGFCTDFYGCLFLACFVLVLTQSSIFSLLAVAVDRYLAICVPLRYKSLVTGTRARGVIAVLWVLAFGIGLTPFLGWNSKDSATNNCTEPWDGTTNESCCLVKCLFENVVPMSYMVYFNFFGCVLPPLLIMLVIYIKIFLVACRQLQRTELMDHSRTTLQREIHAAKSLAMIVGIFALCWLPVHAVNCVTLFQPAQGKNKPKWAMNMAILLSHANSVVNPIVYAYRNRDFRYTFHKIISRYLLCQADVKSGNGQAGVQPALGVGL
Ki [1] [µM],EC50 [2] [µM],SMILES
< 0.01,0.1 to 1,"N#Cc1cccc(-c2nc(N)n3nc(CN4CC(O)C4)nc3c2-c2ccncn2)c1 [Example 57, 3-(5-Amino-2-((3-hydroxyazetidin-1-yl)methyl)-8-(pyrimidin-4-yl)-[1,2,4]triazolo[1,5-c]pyrimidin-7-yl)benzonitrile]"
0.01 to 0.1,–,"Cc1cc(-c2c(-c3cnn(C)c3)nc(N)n3ccnc23)ccn1 [Example 9, 7-(1-Methyl-1H-pyrazol-4-yl)-8-(2-methylpyridin-4-yl)imidazo[1,2-c]pyrimidin-5-amine]"
< 0.01,0.01 to 0.1,"CCn1nccc1-c1c(-c2cccc(C#N)c2)nc(N)n2nc(CC3CCCCC3)nc12 [Example 48, 3-(5-Amino-2-(cyclohexylmethyl)-8-(1-ethyl-1H-pyrazol-5-yl)-[1,2,4]triazolo[1,5-c]pyrimidin-7-yl)benzonitrile]"
< 0.01,< 0.01,"COCc1nc(C)oc1-c1c(-c2cccc(C#N)c2)nc(N)n2nc(Cc3ccccn3)nc12 [Example 63, 3-(5-Amino-8-(4-(methoxymethyl)-2-methyloxazol-5-yl)-2-(pyridin-2-ylmethyl)-[1,2,4]triazolo[1,5-c]pyrimidin-7-yl)benzonitrile]"
< 0.01,0.01 to 0.1,"N#Cc1cccc(-c2nc(N)n3nc(Cc4c(F)cccc4CN4CCC(C(=O)O)CC4)nc3c2-c2ccncn2)c1 [Example 73, 1-(2-((5-Amino-7-(3-cyanophenyl)-8-(pyrimidin-4-yl)-[1,2,4]triazolo[1,5-c]pyrimidin-2-yl)methyl)-3-fluorobenzyl)piperidine-4-carboxylic acid]"
< 0.01,< 0.01,"Cc1ncoc1-c1c(-c2cccc(C#N)c2)nc(N)n2nc(Cc3ccccn3)nc12 [Example 61, 3-(5-Amino-8-(4-methyloxazol-5-yl)-2-(pyridin-2-ylmethyl)-[1,2,4]triazolo[1,5-c]pyrimidin-7-yl)benzonitrile]"
< 0.01,< 0.01,"Cc1nc(CO)c(-c2c(-c3cccc(C#N)c3)nc(N)n3nc(Cc4ncccc4F)nc23)o1 [Example 85, 3-(5-Amino-2-((3-fluoropyridin-2-yl)methyl)-8-(4-(hydroxymethyl)-2-methyloxazol-5-yl)-[1,2,4]triazolo[1,5-c]pyrimidin-7-yl)benzonitrile]"
< 0.01,< 0.01,"Cc1cnccc1-c1c(-c2cccc(C#N)c2)nc(N)n2nc(Cc3ccccn3)nc12 [Example 58, 3-(5-Amino-8-(3-methylpyridin-4-yl)-2-(pyridin-2-ylmethyl)-[1,2,4]triazolo[1,5-c]pyrimidin-7-yl)benzonitrile]"
< 0.01,0.01 to 0.1,"N#Cc1cccc(-c2nc(N)n3nc(C4CCOC4)nc3c2-c2ccncc2)c1 (stereo not shown) [Example 70, 3-(5-Amino-8-(pyridin-4-yl)-2-(tetrahydrofuran-3-yl)-[1,2,4]triazolo[1,5-c]pyrimidin-7-yl)benzonitrile]"
–,< 0.01,"N#Cc1cccc(-c2nc(N)n3nc(C(O)c4c(F)cccc4F)nc3c2-c2ccncn2)c1 (single isomer, unassigned) [Example 76, 3-(5-Amino-2-((2,6-difluorophenyl)(hydroxy)methyl)-8-(pyrimidin-4-yl)-[1,2,4]triazolo[1,5-c]pyrimidin-7-yl)benzonitrile]"
0.01 to 0.1,–,"Cc1occc1-c1nc(N)n2ccnc2c1-c1ccncc1 [Example 6, 7-(2-Methylfuran-3-yl)-8-(pyridin-4-yl)imidazo[1,2-c]pyrimidin-5-amine]"
0.01 to 0.1,–,"CCOC(=O)c1cn2c(N)nc(-c3ccccc3)c(-c3ccnc(C)c3)c2n1 [Example 11, Ethyl 5-amino-8-(2-methylpyridin-4-yl)-7-phenylimidazo[1,2-c]pyrimidine-2-carboxylate]"
0.01 to 0.1,–,"Cc1cc(-c2c(-c3ccccc3)nc(N)n3c(CN4CCOCC4)cnc23)cc(C)n1 [Example 3, 8-(2,6-Dimethylpyridin-4-yl)-3-(morpholinomethyl)-7-phenylimidazo[1,2-c]pyrimidin-5-amine]"

# The remaining lines, values behind:
SMILES,Ki [1] [µM],EC50 [2] [µM]
"CCNC(=O)c1cn2c(N)nc(-c3cccc(C#N)c3)c(-c3ccncn3)c2n1 [Example 38, 5-Amino-7-(3-cyanophenyl)-N-ethyl-8-(pyrimidin-4-yl)imidazo[1,2-c]pyrimidine-2-carboxamide]",< 0.01,0.01 to 0.1
"CCOc1ccc(-c2cnc3c(-c4ccnc(C)c4)c(-c4ccccc4)nc(N)n23)cc1 [Example 13, 3-(4-Ethoxyphenyl)-8-(2-methylpyridin-4-yl)-7-phenylimidazo[1,2-c]pyrimidin-5-amine]",0.01 to 0.1,–
"CCNC(=O)c1cn2c(N)nc(-c3cccc(C#N)c3)c(-c3ccncc3F)c2n1 [Example 28, 5-Amino-7-(3-cyanophenyl)-N-ethyl-8-(3-fluoropyridin-4-yl)imidazo[1,2-c]pyrimidine-2-carboxamide]",< 0.01,< 0.01
"CCNC(=O)c1nc2c(-c3ccnc(OC)c3)c(-c3cccc(C#N)c3)nc(N)n2c1-c1ccccn1 [Example 19, 5-Amino-7-(3-cyanophenyl)-N-ethyl-8-(2-methoxypyridin-4-yl)-3-(pyridin-2-yl)imidazo[1,2-c]pyrimidine-2-carboxamide]",< 0.01,0.1 to 1
"CCNC(=O)c1cn2c(N)nc(-c3cccc(C#N)c3)c(-c3cnn4ccccc34)c2n1 [Example 33, 5-Amino-7-(3-cyanophenyl)-N-ethyl-8-(pyrazolo[1,5-a]pyridin-3-yl)imidazo[1,2-c]pyrimidine-2-carboxamide]",< 0.01,0.1 to 1
"CCn1nccc1-c1c(-c2cccc(C#N)c2)nc(N)n2nc(Cc3ncccc3F)nc12 [Example 52, 3-(5-Amino-8-(1-ethyl-1H-pyrazol-5-yl)-2-((3-fluoropyridin-2-yl)methyl)-[1,2,4]triazolo[1,5-c]pyrimidin-7-yl)benzonitrile]",< 0.01,< 0.01
"Nc1nc(-c2cc3ccccc3o2)c(-c2ccncc2)c2nccn12 [Example 8, 7-(Benzofuran-2-yl)-8-(pyridin-4-yl)imidazo[1,2-c]pyrimidin-5-amine]",0.1 to 1,–
"N#Cc1cccc(-c2nc(N)n3nc(C(O)c4c(F)cccc4F)nc3c2-c2ccncn2)c1 (single isomer, unassigned) [Example 77, 3-(5-Amino-2-((2,6-difluorophenyl)(hydroxy)methyl)-8-(pyrimidin-4-yl)-[1,2,4]triazolo[1,5-c]pyrimidin-7-yl)benzonitrile]",–,0.01 to 0.1
"CCNC(=O)c1cn2c(N)nc(-c3ccccc3)c(-c3cc(C)[n+]([O-])c(C)c3)c2n1 [Example 23, 4-(5-Amino-2-(ethylcarbamoyl)-7-phenylimidazo[1,2-c]pyrimidin-8-yl)-2,6-dimethylpyridine 1-oxide]",< 0.01,–
"COC(=O)c1cc(-c2cn3c(N)nc(-c4ccccc4)c(-c4ccncc4)c3n2)on1 [Example 12, Methyl 5-(5-amino-7-phenyl-8-(pyridin-4-yl)imidazo[1,2-c]pyrimidin-2-yl)isoxazole-3-carboxylate]",0.01 to 0.1,–
"Cc1cc(-c2c(-c3cnc4c(c3)CCN4)nc(N)n3ccnc23)cc(C)n1 [Example 2, 7-(2,3-Dihydro-1H-pyrrolo[2,3-b]pyridin-5-yl)-8-(2,6-dimethylpyridin-4-yl)imidazo[1,2-c]pyrimidin-5-amine]",0.1 to 1,–
